Consider five compounds from ChEMBL document CHEMBL1145083, “Novel estrogen receptor ligands based on an anthranylaldoxime structure: role of the phenol-type pseudocycle in the binding process” (J Med Chem, 2003).

SMILES strings stand for the structures. Where “and” joins values, the source holds several entries; their conditions need not be identical. Equal values may be shown once.

Experiment [1] has as its target T1, Estrogen receptor beta (Homo sapiens, UniProt Q92731).
The next experiment deals with T2, Estrogen receptor (Homo sapiens, UniProt P03372).
T2 sequence (P03372 whole entry): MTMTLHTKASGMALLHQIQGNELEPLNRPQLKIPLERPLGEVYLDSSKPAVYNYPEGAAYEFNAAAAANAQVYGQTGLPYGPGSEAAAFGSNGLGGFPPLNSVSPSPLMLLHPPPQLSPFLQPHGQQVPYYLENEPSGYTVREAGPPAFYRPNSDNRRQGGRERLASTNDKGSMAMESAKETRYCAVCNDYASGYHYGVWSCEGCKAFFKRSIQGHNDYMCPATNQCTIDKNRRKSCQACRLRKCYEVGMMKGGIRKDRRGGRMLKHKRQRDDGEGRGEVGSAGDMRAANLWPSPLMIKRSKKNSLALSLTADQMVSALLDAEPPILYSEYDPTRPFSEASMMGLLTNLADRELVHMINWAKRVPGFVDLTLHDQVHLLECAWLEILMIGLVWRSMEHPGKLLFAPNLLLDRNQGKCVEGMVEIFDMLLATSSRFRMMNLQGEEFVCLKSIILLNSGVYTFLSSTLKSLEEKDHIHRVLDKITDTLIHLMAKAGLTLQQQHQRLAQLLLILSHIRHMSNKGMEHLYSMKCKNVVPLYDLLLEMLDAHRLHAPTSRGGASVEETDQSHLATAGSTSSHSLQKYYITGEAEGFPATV

Experiment [2] addresses T1, Estrogen receptor beta. Nature of the experiment: Antagonist effect on transcriptional activation in HEC-1 cells expressing Estrogen receptor beta at 10e-6 M against 10e-9 M estradiol. The experiment is classed as functional, cell-based.
Experiment [3] addresses T1, Estrogen receptor beta. Nature of the experiment: Agonist effect on transcriptional activation in HEC-1 cells expressing Estrogen receptor beta at 10e-8 M. The experiment is classed as functional, cell-based.

T1 sequence (Q92731 whole entry): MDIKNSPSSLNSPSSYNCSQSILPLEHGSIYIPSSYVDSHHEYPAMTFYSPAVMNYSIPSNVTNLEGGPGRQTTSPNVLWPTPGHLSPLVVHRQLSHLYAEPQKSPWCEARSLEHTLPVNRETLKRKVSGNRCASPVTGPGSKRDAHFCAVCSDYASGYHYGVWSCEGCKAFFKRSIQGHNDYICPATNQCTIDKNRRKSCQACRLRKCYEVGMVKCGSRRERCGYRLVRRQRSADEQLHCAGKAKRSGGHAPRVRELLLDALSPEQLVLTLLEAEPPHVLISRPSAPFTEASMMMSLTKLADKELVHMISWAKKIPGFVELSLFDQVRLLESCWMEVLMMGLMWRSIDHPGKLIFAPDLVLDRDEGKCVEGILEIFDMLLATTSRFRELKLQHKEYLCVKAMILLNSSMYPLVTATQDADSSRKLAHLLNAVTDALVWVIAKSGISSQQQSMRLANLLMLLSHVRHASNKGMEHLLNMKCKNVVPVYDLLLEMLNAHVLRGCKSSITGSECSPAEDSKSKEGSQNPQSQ

In the case of `CNc1c(/C=N/O)ccc(-c2ccccc2)c1-c1ccccc1`, the values for the Ki at Estrogen receptor beta [1] and on Estrogen receptor were 5.2 nM and 3.7 nM, respectively. For the same compound, the Efficacy is 71% at Estrogen receptor beta [2]; 1.1% and 22% at Estrogen receptor beta [3].

As to `O/N=C/c1ccc(-c2ccccc2)c(-c2ccccc2)c1`, the Ki (usually a dissociation constant, usually derived from enzyme kinetics or from competition with a known ligand) worked out at 0.27 nM at Estrogen receptor beta [1] and 0.15 nM on Estrogen receptor. Also, the Efficacy is 69% on Estrogen receptor beta [2]; 1.3% and 20% on Estrogen receptor beta [3].

With `O/N=C/c1ccc(-c2ccccc2)c(-c2ccccc2)c1O`, the Ki on Estrogen receptor beta [1] was 1.7 nM; on Estrogen receptor, 1.1 nM. Moreover, the Efficacy at Estrogen receptor beta [2] was 53%; on Estrogen receptor beta [3], 2.6% and 24%.

On to `Nc1c(/C=N/O)ccc(-c2ccccc2)c1-c1ccccc1`, for which the inhibition constant (Ki) was determined as 2.8 nM at Estrogen receptor beta [1] and 2.2 nM on Estrogen receptor. The Efficacy at Estrogen receptor beta [2] was 31%; at Estrogen receptor beta [3], 6% and 23%.

In the case of `CCNc1c(/C=N/O)ccc(-c2ccccc2)c1-c1ccccc1`, the results for the Ki at Estrogen receptor beta [1] and on Estrogen receptor were 0.048 nM and 0.47 nM, respectively. Also, the Efficacy on Estrogen receptor beta [2] was 85%; at Estrogen receptor beta [3] it was 0.94% and 4.9%.
